Here are results for 1 compound from paper PMC6934184, “Selective DNA-PKcs inhibition extends the therapeutic index of localized radiotherapy and chemotherapy” (The Journal of Clinical Investigation, 2019).

The assay has as its target T1, CSNK1G2 (CK1 gamma 2) (Homo sapiens, UniProt P78368).
T1 construct: purchased Thermo Fisher Scientific (Life Technologies) SelectScreen
The assay can be described thus: SelectScreen Z'LYTE. Type of assay: biochemical. In outline: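 SelectScreen broad panel; activity (Z'LYTE, Adapta) plus binding formats. ATP: Km app for CSF1R Z'LYTE; 10 for CAMK1 Adapta. Readout = % per kinase.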

T1 sequence (P78368 whole entry): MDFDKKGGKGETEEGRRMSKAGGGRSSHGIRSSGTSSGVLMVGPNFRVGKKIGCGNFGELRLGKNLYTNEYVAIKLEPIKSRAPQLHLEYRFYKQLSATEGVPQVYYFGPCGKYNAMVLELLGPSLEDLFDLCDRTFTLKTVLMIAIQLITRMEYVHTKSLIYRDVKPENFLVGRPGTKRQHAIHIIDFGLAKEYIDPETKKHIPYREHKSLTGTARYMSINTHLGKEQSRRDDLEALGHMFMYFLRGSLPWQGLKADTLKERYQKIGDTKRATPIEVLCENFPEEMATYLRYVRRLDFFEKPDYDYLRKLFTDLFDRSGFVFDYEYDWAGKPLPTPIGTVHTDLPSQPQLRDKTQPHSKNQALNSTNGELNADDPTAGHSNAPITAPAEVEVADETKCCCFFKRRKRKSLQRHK

Take `CN(C(=O)CN1CCOCC1)c1ccc2sc3c(-c4cccc5c(=O)cc(N6CC7CCC(C6)O7)oc45)cccc3c2c1` [NU5455]: the inhibition at 1 µM was -9.3%.
